pIC50: −log10 of the molar value. Like-named read-outs stand apart in the source and are kept apart here.
Key:
ETA [1] = target: T1, ETA (Oryctolagus cuniculus, UniProt A5A8K3); assay: VERA-A: antagonism of ET-1 stimulated vasoconstriction in the rabbit femoral artery (ETA); format: cell-based; conditions: ET-1, rabbit femoral artery; read-out: VERA-A pA2 (converted)
T1 sequence (A5A8K3 21-427): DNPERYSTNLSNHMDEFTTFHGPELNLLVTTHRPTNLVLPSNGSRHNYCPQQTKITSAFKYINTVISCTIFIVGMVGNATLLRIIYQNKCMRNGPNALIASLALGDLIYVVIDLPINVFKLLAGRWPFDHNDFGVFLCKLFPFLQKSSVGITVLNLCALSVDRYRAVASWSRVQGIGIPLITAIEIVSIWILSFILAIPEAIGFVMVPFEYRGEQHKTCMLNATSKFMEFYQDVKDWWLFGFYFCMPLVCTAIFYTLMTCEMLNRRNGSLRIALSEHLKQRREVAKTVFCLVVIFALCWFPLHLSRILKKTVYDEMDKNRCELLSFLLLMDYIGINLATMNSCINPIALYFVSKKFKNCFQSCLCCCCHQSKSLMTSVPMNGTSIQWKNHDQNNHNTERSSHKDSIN
Method: Male New Zealand rabbits were killed by cervical dislocation and exsanguination. Femoral and pulmonary arteries were isolated, cleaned of connective tissue, and cut into 4-mm rings. The endothelium was denuded by placing the rings over hypodermic tubing (32 gauge for femoral rings and 28 gauge for pulmonary rings, Small Parts, Inc, Miami, Fla.) and gently rolling them. […] Resting tension was adjusted to 3.0 g for femoral and 4.0 g pulmonary arteries; the rings were left for 90 minutes to equilibrate.

ETA [2] = target: T1, ETA
ETB = target: T2, ETB (Rattus norvegicus, UniProt P21451)
T2 sequence (P21451 27-442): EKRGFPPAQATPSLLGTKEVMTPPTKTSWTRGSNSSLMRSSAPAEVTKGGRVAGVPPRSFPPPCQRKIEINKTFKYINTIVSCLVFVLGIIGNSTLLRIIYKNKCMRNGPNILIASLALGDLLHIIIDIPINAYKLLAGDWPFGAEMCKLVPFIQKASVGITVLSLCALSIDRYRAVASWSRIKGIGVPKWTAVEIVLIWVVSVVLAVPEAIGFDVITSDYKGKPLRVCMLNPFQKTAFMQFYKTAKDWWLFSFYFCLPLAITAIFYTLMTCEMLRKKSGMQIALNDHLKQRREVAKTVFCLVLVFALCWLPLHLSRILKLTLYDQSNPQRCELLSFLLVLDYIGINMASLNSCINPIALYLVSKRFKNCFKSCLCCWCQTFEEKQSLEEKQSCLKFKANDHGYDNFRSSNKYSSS
Method: The tissue is made up of 20 mM tris(hydroxymethyl)aminomethane hydrochloride (Trizma) buffer, 2 mM ethylenediaminetetra acetate, 100 μM phenylmethylsulfonyl fluoride.
First, thaw one aliquot of frozen rat cerebellar membranes (2 mg protein in 0.5 mL). Next, add 0.5 mL membrane aliquot to 4.5 mL cold tissue buffer, polytron at 7,500 revolutions per minute for 10 seconds. Finally, dilute tissue suspension 1/100 (0.1 mL suspension+9.9 mL tissue buffer), polytron again, and place ice.
Mix in 150 μL of tissue to each tube, vortex briefly, then tap to force all liquids to bottom (total assay volume=250 μL). Then place the tubes in a 37° C. water bath for 2 hours.
Add 2.5 mL cold wash buffer (50 mM Trizma buffer) to each tube, filter, and then wash tube with additional 2.5 mL wash buffer and add to filter. Finally, wash filters with an additional 2.5 mL of cold wash buffer.
Count filters for radioactivity in gamma counter.

[3] = ERBA-A IC50, [125I]-ET-1, rabbit renal artery vascular smooth muscle cells

Structure (SMILES)	Kb (ETA [1]) [nM]	pIC50 (ETA [2]; [3])	pIC50 (ETB)	pIC50 (ETA [2]; read-out: ERBA-A IC50, [125I]-ET-1, rabbit renal artery vascular smooth muscle cells)	pIC50 (ETB; read-out: ERBA-B IC50, [125I]-ET-1, rat cerebellar membranes)
COc1ccc(C(=O)/C(Cc2ccccc2OC)=C(\C(=O)O)c2ccc3c(c2)OCO3)cc1	251	–	–	–	–
COc1ccc(C2=C(Cc3ccc(C(C)C)cc3)C(O)(c3ccc(Cl)cc3)OC2=O)cc1OC (racemic) [Example 70, 2(5H)-Furanone, 5-(4-chlorophenyl)-3-(3,4-dimethoxyphenyl)-5-hydroxy-4-[[4-(1-methylethyl)phenyl]methyl]-, (±)-]	–	5.03	4.82	–	–
COc1ccc(C2=C(Cc3ccc(Cl)c(Cl)c3)C(O)(c3ccc(Cl)cc3)OC2=O)cc1OC (racemic) [Example 73, 2(5H)-Furanone, 5-(4-chlorophenyl)-4-[(3,4-dichlorophenyl)methyl]-3-(3,4-dimethoxyphenyl)-5-hydroxy-, (±)-]	–	4.68	4.89	–	–
O=C1OC(O)(c2ccccc2)C(Cc2cccs2)=C1c1ccc2c(c1)OCO2 (stereo not drawn) [Example 25, 2(5H)-Furanone, 3-(1,3-benzodioxol-5-yl)-5-hydroxy-5-phenyl-4-(2-thienylmethyl)-]	–	5.77	4.81	–	–
O=C1OC(O)(c2ccccc2)C(Cc2ccsc2)=C1c1ccc2c(c1)OCO2 (stereo not drawn) [Example 26, 2(5H)-Furanone, 3-(1,3-benzodioxol-5-yl)-5-hydroxy-5-phenyl-4-(3-thienylmethyl)-]	–	6.10	4.81	–	–
O=C1OC(O)(c2ccc(Cl)cc2)C(Cc2ccccc2)=C1c1ccc2c(c1)OCCO2 (stereo not drawn) [Example 30, 2(5H)-Furanone, 5-(4-chlorophenyl)-3-(2,3-dihydro-1,4-benzodioxin-6-yl)-5-hydroxy-4-(phenylmethyl)-]	–	5.10	4.89	–	–
O=C1OC(O)(c2ccc(Cl)cc2)C(Cc2ccc(Cl)cc2)=C1c1ccc2c(c1)OCO2 (stereo not drawn) [Example 31, 2(5H)-Furanone, 3-(1,3-benzodioxol-5-yl)-5-(4-chlorophenyl)-4-[(4-chlorophenyl)methyl]-5-hydroxy-]	–	5.00	5.04	–	–
COc1ccc(CC2=C(c3ccc4c(c3)OCO4)C(=O)OC2(O)c2ccc(Cl)cc2)cc1 (stereo not drawn) [Example 32, 2(5H)-Furanone, 3-(1,3-benzodioxol-5-yl)-5-(4-chlorophenyl)-5-hydroxy-4-[(4-methoxyphenyl)methyl]-]	–	6.00	5.20	–	–
Cc1ccc(CC2=C(c3ccc4c(c3)OCO4)C(=O)OC2(O)c2ccc(Cl)cc2)cc1 (stereo not drawn) [Example 33, 2(5H)-Furanone, 3-(1,3-benzodioxol-5-yl)-5-(4-chlorophenyl)-5-hydroxy-4-[(4-methylphenyl)methyl]-]	–	5.46	5.24	–	–
Cc1cccc(CC2=C(c3ccc4c(c3)OCO4)C(=O)OC2(O)c2ccc(Cl)cc2)c1 (stereo not drawn) [Example 34, 2(5H)-Furanone, 3-(1,3-benzodioxol-5-yl)-5-(4-chlorophenyl)-5-hydroxy-4-[(3-methylphenyl)methyl]-]	–	5.89	5.15	–	–
O=C1OC(O)(c2ccc(Cl)cc2)C(Cc2cccs2)=C1c1ccc2c(c1)OCO2 (stereo not drawn) [Example 35, 2(5H)-Furanone, 3-(1,3-benzodioxol-5-yl)-5-(4-chlorophenyl)-5-hydroxy-4-(2-thienylmethyl)-]	–	5.96	5.48	–	–
COc1cccc(CC2=C(c3ccc4c(c3)OCO4)C(=O)OC2(O)c2ccc(Cl)cc2)c1 (stereo not drawn) [Example 47, 2(5H)-Furanone, 3-(1,3-benzodioxol-5-yl)-5-(4-chlorophenyl)-5-hydroxy-4-[(3-methoxyphenyl)methyl]-]	–	5.41	5.11	–	–
O=C1OC(O)(c2ccc(Cl)cc2)C(Cc2ccsc2)=C1c1ccc2c(c1)OCO2 (stereo not drawn) [Example 48, 2(5H)-Furanone, 3-(1,3-benzodioxol-5-yl)-5-(4-chlorophenyl)-5-hydroxy-4-(3-thienylmethyl)-]	–	5.92	5.21	–	–
O=C1OC(O)(c2ccc(Cl)cc2)C(Cc2cccc(Cl)c2)=C1c1ccc2c(c1)OCO2 (stereo not drawn) [Example 74, 2(5H)-Furanone, 3-(1,3-benzodioxol-5)-5-(4-chlorophenyl)-4-[(3-chlorophenyl)methyl]-5-hydroxy]	–	–	–	5.60	4.92
COc1ccc(C2(O)OC(=O)C(c3ccc4c(c3)OCO4)=C2Cc2ccc(Cl)c(Cl)c2)cc1 (stereo not drawn) [Example 78, 3-Benzo[1,3]dioxol-5-yl-4-(3,4-dichlorobenzyl)-5-hydroxy-5-(4-methoxyphenyl)-5H-furan-2-one]	–	6.62	6.05	–	–
COc1ccc(C2(O)OC(=O)C(c3ccc4c(c3)OCO4)=C2Cc2ccc(C(C)(C)C)cc2)cc1 (stereo not drawn) [Example 79, 3-Benzo[1,3]dioxol-5-yl-4-(4-tert-butylbenzyl)-5-hydroxy-5-(4-methoxyphenyl)-5H-furan-2-one]	–	7.08	6.28	–	–
COc1ccc(C2(O)OC(=O)C(c3ccc4c(c3)OCO4)=C2Cc2ccc(Br)cc2)cc1 (stereo not drawn) [Example 83, 3-Benzo[1,3]dioxol-5-yl-4-(4-bromobenzyl)-5-hydroxy-5-(4-methoxyphenyl)-5H-furan-2-one]	–	7.15	6.30	–	–
CC(C)c1ccc(CC2=C(c3ccc(Cl)c(Cl)c3)C(=O)OC2(O)c2ccc(Cl)cc2)cc1 (stereo not drawn) [Example 118, 5-(4-Chlorophenyl)-3-(3,4-dichlorophenyl)-5-hydroxy-4-(4-isopropylbenzyl)-5 H-furan-2-one]	–	6.27	4.89	–	–
CN(C)c1ccc(CC2=C(c3ccc(Cl)c(Cl)c3)C(=O)OC2(O)c2ccc(Cl)cc2)cc1 (stereo not drawn) [Example 119, 5-(4-Chlorophenyl)-3-(3,4-dichlorophenyl)-4-(4-dimethylaminobenzyl)-5-hydroxy-5H-furan-2-one]	–	5.24	5.39	–	–
COc1ccc(C2(O)OC(=O)C(c3cc(OC)cc(OC)c3)=C2Cc2ccccc2)cc1 (stereo not drawn) [Example 125, 4-Benzyl-3-(3,5-dimethoxyphenyl)-5-hydroxy-5-(4-methoxyphenyl)-5H-furan-2-one]	–	7.54	6.70	–	–
COc1ccc(C2(O)OC(=O)C(c3cc(OC)cc(OC)c3)=C2Cc2cccc(C=O)c2)cc1 (stereo not drawn) [Example 134, 3-[4-(3,5-Dimethoxyphenyl)-2-hydroxy-2-(4-methoxyphenyl)-5-oxo-2,5-dihydrof uran-3-ylmethyl]benzaldehyde]	–	7.62	5.92	–	–
COc1ccc(C2(O)OC(=O)C(c3cccc(OC)c3)=C2Cc2ccccc2)cc1 (stereo not drawn) [Example 153, 4-Benzyl-5-hydroxy-5-(4-methoxyphenyl)-3-(3-methoxyphenyl)-5H-furan-2-one]	–	6.44	5.70	–	–
CCCOc1cccc(CC2=C(c3cccc(OC)c3)C(=O)OC2(O)c2ccc(OC)cc2)c1 (stereo not drawn) [Example 154, 5-Hydroxy-5-(4-methoxyphenyl)-3-(3-methoxyphenyl)-4-(3-propoxybenzyl)-5H-fu ran-2-one]	–	7.00	5.68	–	–
O=C1OC(O)(c2c(F)cccc2F)C(Cc2ccccc2)=C1c1ccc2c(c1)OCO2 (stereo not drawn) [Example 158, 3-Benzo[1,3]dioxol-5-yl-4-benzyl-5-(2,6-difluorophenyl)-5-hydroxy-5H-furan-2-one]	–	5.64	4.68	–	–
COc1ccc(C2(O)OC(=O)C(c3cn(C)c4ccccc34)=C2Cc2ccccc2)cc1 (stereo not drawn) [Example 170]	–	5.89	6.05	–	–
Cc1ccccc1C1(O)OC(=O)C(c2ccc3c(c2)OCO3)=C1Cc1ccccc1 (stereo not drawn) [Example 216, 3-Benzo[1,3]dioxol-5-yl-4-benzyl-5-hydroxy-5-o-tolyl-5H-furan-2-one]	–	6.54	5.10	–	–
COc1cccc(C2(O)OC(=O)C(c3ccc4c(c3)OCO4)=C2Cc2ccccc2)c1 (stereo not drawn) [Example 220, 3-Benzo[1,3]dioixol-5-yl-4-benzyl-5-hydroxy-5-(3-methoxyphenyl)-5H-furan-2-one]	–	6.52	5.82	–	–
COc1ccc(C2(O)OC(=O)C(c3ccc4c(c3)OCO4)=C2Cc2ccc(SC)cc2)cc1 (stereo not drawn) [Example 236, 3-Benzo[1,3]dioxol-5-yl-5-hydroxy-5-(4-methoxyphenyl)-4-(4-methylsulfanylbenzyl)-5H-furan-2-one]	316	6.64	–	–	–
C=CCOc1cc(OC)ccc1C1(O)OC(=O)C(c2ccc3c(c2)OCO3)=C1Cc1ccccc1 (stereo not drawn) [Example 329, 3-Benzo[1,3]dioxol-5-yl-5-hydroxy-5-(2-allyloxy-4-methoxy-phenyl)-4-benzyl-5H-furan-2one]	–	6.96	6.96	–	–

Source: patent US5691373A, “Nonpeptide endothelin antagonists I” (Warner-Lambert Company, priority 1995, dated 1997)
